The text below walks through data of the RepoRT retention time repository (doi:10.1038/s41586-021-03707-9).

Structures are written as SMILES.

The series can be described thus: RP, Waters ACQUITY UPLC HSS C18, 100 × 2.1 mm, 1.7 µm, 40 °C, 0.35 mL/min, estimated dead time 0.63 min; A: water + 0.1% formic acid; B: methanol + 0.1% formic acid; gradient (min/%B) 0/0.5 4/70 4.5/98 5.4/98. As to conditions: stereoisomer not certain.

As to `COC(=O)c1cccnc1`, the LC retention time was 3.23 min.
Turning to `CC12CCC(=O)C=C1CCC1C2C(O)CC2(C)C(C(=O)CO)CCC12` (stereo not drawn), the LC retention time is 5.31 min.
For `CC(C)CC(=O)NCC(=O)O`, the LC retention time is 3.07 min.
Regarding `CC(C(=O)O)c1ccc(O)cc1` (stereo not drawn), the LC retention time was 3.84 min.
Then `COc1ccc(C=O)cc1`, with 0.897 min; and `O=C(O)Cc1ccc(O)cc1`, with 3.23 min.
Turning to `O=C(O)CNC(=O)c1ccccc1`, the LC retention time is 3.23 min.
The value for `NCC(O)c1ccc(O)c(O)c1` (stereo not drawn) was 0.806 min; that for `Nc1ccn(C2CC(O)C(COP(=O)(O)O)O2)c(=O)n1` (stereo not drawn) was 1.1 min; that for `O=c1ccc2ccccc2o1` was 4.19 min.
The value for `CN1C(=O)CCC1c1cccnc1` (stereo not drawn) was 1.72 min; that for `O=C(O)CCCCCC(=O)O` was 3.46 min.
In the case of `CC(C)C(O)(CC(=O)O)C(=O)O` (stereo not drawn), the LC retention time is 3.35 min.
Then `CCCC(NC(C)C(=O)N1C(C(=O)O)CC2CCCCC21)C(=O)OCC` (stereo not drawn), with 4.66 min; and `CCCOC(=O)c1cc(O)c(O)c(O)c1`, with 4.3 min; and `CNC(CC(=O)O)C(=O)O` (stereo not drawn), with 0.772 min.
In the case of `NCC(=O)CCC(=O)O`, the LC retention time was 0.768 min.
Turning to `O=C(O)C=C(CC(=O)O)C(=O)O`, the LC retention time is 1.84 min.
Then `O=c1[nH]c(=O)c2ncn(C3OC(COP(=O)(O)O)C(O)C3O)c2[nH]1` (stereo not drawn), with 1.41 min; and `O=c1cccc[nH]1`, with 1.94 min; and `CC(=O)OCC[N+](C)(C)C`, with 0.907 min.
On to `CCOC(=O)c1cncn1C(C)c1ccccc1` (stereo not drawn), for which the LC retention time is 5.14 min.
Turning to `NC(N)=NC(CC(=O)O)C(=O)O` (stereo not drawn), the LC retention time was 0.802 min.
Regarding `O=Cc1ccccc1C(=O)O`, the LC retention time was 3.24 min.
Regarding `CC(CCC(=O)O)CC(=O)O` (stereo not drawn), the LC retention time was 3.46 min.
Regarding `CC12CCC(=O)C=C1CCC1C2CCC2(C)C1CCC2(O)C(=O)CO` (stereo not drawn), the LC retention time is 5.33 min.
Then `O=C(O)C(O)Cc1ccccc1` (stereo not drawn), with 3.7 min.
Then `NC(CSCC(=O)O)C(=O)O` (stereo not drawn), with 0.873 min.
In the case of `CC(=O)OCC(=O)C1(O)CCC2C3CCC4=CC(=O)CCC4(C)C3C(O)CC21C` (stereo not drawn), the LC retention time was 5.32 min.
In the case of `Cn1c(=O)[nH]c(=O)c2[nH]cnc21`, the LC retention time was 2.17 min.
In the case of `O=C1Cc2ccccc2N1`, the LC retention time was 3.76 min.
Consider `O=C(O)c1cc(O)c(O)c(O)c1`, for which the LC retention time was 1.88 min.
Consider `CCOC(=O)CC(=O)OCC`, for which the LC retention time was 4.32 min.
For `NC(=O)Cc1ccccc1`, the LC retention time was 3.38 min.
The value for `CC(=CC(=O)O)CC(=O)O` was 3.07 min.
Consider `O=P(O)(O)OCC1OC(O)C(O)C(O)C1O` (stereo not drawn), for which the LC retention time was 0.783 min.
For `NC(CS(=O)O)C(=O)O` (stereo not drawn), the LC retention time is 0.768 min.
Turning to `OCC(O)C(O)C(OC1OC(CO)C(O)C(O)C1O)C(O)CO` (stereo not drawn), the LC retention time is 4.47 min.
Regarding `Nc1ccccc1O`, the LC retention time is 1.42 min.
Consider `CC(=O)OCC1OC(OC(C)=O)C(OC(C)=O)C(OC(C)=O)C1OC(C)=O` (stereo not drawn), for which the LC retention time was 4.5 min.
On to `CN(C)CCC=C1c2ccccc2COc2ccccc21`, for which the LC retention time was 4.44 min.
Then `CC(=O)NC(CCC(=O)O)C(=O)O` (stereo not drawn), with 1.63 min; and `CCOC(=O)C(=O)C(C)C(=O)OCC` (stereo not drawn), with 4.56 min; and `CN(C)CCOC(C)(c1ccccc1)c1ccccn1` (stereo not drawn), with 3.14 min.
For `O=C(O)C1OC(Oc2c[nH]c3ccccc23)C(O)C(O)C1O` (stereo not drawn), the LC retention time was 2.98 min.
For the compound `NC(CS(=O)(=O)O)C(=O)O` (stereo not drawn), the LC retention time is 0.773 min.
Take `NC(N)=S`: the LC retention time is 0.847 min.
For the compound `O=C(O)c1cccnc1C(=O)O`, the LC retention time is 1.35 min.
In the case of `NC(CS)C(=O)O` (stereo not drawn), the LC retention time is 0.798 min.
Then `NCc1ccccc1`, with 1.99 min.
As for `NC(CCS)C(=O)O` (stereo not drawn), the LC retention time is 0.907 min.
As for `O=C(O)c1c[nH]c2ccccc12`, the LC retention time is 4.08 min.
For `Nc1ccc(C(=O)O)c(O)c1`, the LC retention time is 2.69 min.
As for `O=C(C=Cc1ccc(O)c(O)c1)OC1CC(O)(C(=O)O)CC(O)C1O` (stereo not drawn), the LC retention time was 3.03 min.
Consider `CC(O)(CC(=O)O)CC(=O)O`, for which the LC retention time is 1.9 min.
In the case of `COC(=O)C1=C(C)NC(C)=C(C(=O)OC)C1c1ccccc1[N+](=O)[O-]`, the LC retention time was 5.28 min.
Then `Cc1cc2nc3[nH]c(=O)[nH]c(=O)c3nc2cc1C`, with 4.5 min; and `CC(=O)CC(=O)CCC(=O)O`, with 3.3 min; and `O=C(O)C=Cc1ccccc1`, with 4.92 min.
Regarding `CN(C)CCC=C1c2ccccc2CCc2ccccc21`, the LC retention time is 4.85 min.
For the compound `Cn1c(=O)c2c(ncn2C)n(C)c1=O`, the LC retention time was 3.23 min.
For the compound `Cc1occc(=O)c1O`, the LC retention time is 2.77 min.
Then `O=C(O)CC=CCC(=O)O`, with 2.67 min.
Turning to `NCC(O)c1ccc(O)cc1` (stereo not drawn), the LC retention time is 0.904 min.
For the compound `NC(=O)NC(NC(N)=O)C(=O)O`, the LC retention time was 0.777 min.
The value for `O=C(O)CCCCCCCC(=O)O` was 4.56 min; that for `CC(=O)NC(CC(=O)O)C(=O)O` (stereo not drawn) was 1.23 min.
On to `COc1ccc(-c2oc3cc(O)ccc3c(=O)c2O)cc1O`, for which the LC retention time is 3.62 min.
Then `Nc1ccc(O)cc1`, with 0.829 min; and `Cn1c(=O)[nH]c2[nH]c(=O)[nH]c2c1=O`, with 2.1 min.
The value for `O=C(O)C=Cc1cnc[nH]1` was 1.16 min.
For `CC(CC(=O)O)CC(=O)O`, the LC retention time was 3.02 min.
The value for `O=C(O)C=Cc1c[nH]c2ccccc12` was 4.59 min; that for `OCC1OC(OC2C(CO)OC(O)C(O)C2O)C(O)C(O)C1O` (stereo not drawn) was 0.801 min; that for `CC1OC(n2cnc3c(N)ncnc32)C(O)C1O` (stereo not drawn) was 2.25 min.
Regarding `CC(C(=O)O)C(=O)O`, the LC retention time was 1.87 min.
With `Oc1c[nH]c2ccccc12`, the LC retention time was 3.85 min.
Take `Nc1nc2c(ncn2CCC(CO)CO)c(=O)[nH]1`: the LC retention time is 1.88 min.
The value for `C[N+](C)(C)CCOP(=O)([O-])OCC(O)CO` (stereo not drawn) was 0.764 min; that for `CCN(Cc1ccncc1)C(=O)C(CO)c1ccccc1` (stereo not drawn) was 3.36 min.
Then `O=C(O)CC(O)C(=O)O` (stereo not drawn), with 1.92 min.
Turning to `COC(=O)C1=C(C)NC(C)=C(C(=O)OCCN(C)Cc2ccccc2)C1c1cccc([N+](=O)[O-])c1` (stereo not drawn), the LC retention time was 4.6 min.
Consider `CC(CC(=O)O)C(=O)O` (stereo not drawn), for which the LC retention time was 2.58 min.
Then `CC12CC3CC(C)(C1)CC(N)(C3)C2`, with 4.42 min; and `COc1ccc(CCN(C)CCCC(C#N)(c2ccc(OC)c(OC)c2)C(C)C)cc1OC` (stereo not drawn), with 4.54 min; and `CCC(=O)OC(CC(=O)[O-])C[N+](C)(C)C` (stereo not drawn), with 1.82 min.
On to `NC(COP(=O)(O)O)C(=O)O` (stereo not drawn), for which the LC retention time is 0.759 min.
Take `NC(CCOC(=O)CCC(=O)O)C(=O)O` (stereo not drawn): the LC retention time was 1.36 min.
With `CN1CC(=O)NC1=O`, the LC retention time was 1.62 min.
Consider `CNCCc1ccccc1`, for which the LC retention time was 2.61 min.
Take `CCCc1nc(C)c2c(=O)[nH]c(-c3cc(S(=O)(=O)N4CCN(CC)CC4)ccc3OCC)nn12`: the LC retention time was 4.47 min.
In the case of `NC(CCC(=O)O)C(=O)O` (stereo not drawn), the LC retention time is 0.764 min.
For `O=CNCC(=O)O`, the LC retention time was 0.919 min.
For the compound `CCC1OC(=O)C(C)C(OC2CC(C)(OC)C(O)C(C)O2)C(C)C(OC2OC(C)CC(N(C)C)C2O)C(C)(O)CC(C)C(=O)C(C)C(O)C1(C)O` (stereo not drawn), the LC retention time is 4.82 min.
On to `O=C(O)C=Cc1ccc(O)cc1`, for which the LC retention time was 3.76 min.
Regarding `CN=C(N)N`, the LC retention time is 0.776 min.
Then `C[N+](C)(C)CCOP(=O)([O-])OP(=O)(O)OCC1OC(n2ccc(N)nc2=O)C(O)C1O` (stereo not drawn), with 0.822 min; and `CC(CCC(=O)O)C(=O)O` (stereo not drawn), with 2.97 min.
Then `CC(=O)NC1C(O)CC(O)(C(=O)O)OC1C(O)C(O)CO` (stereo not drawn), with 0.846 min; and `O=C(O)C=Cc1cccc(O)c1`, with 4.38 min; and `Cn1c(=O)[nH]c2nc[nH]c2c1=O`, with 2.28 min.
For `CN(C)CCOC(c1ccccc1)c1ccccc1`, the LC retention time was 4.37 min.
Regarding `Cn1cnc(=N)c2[nH]cnc21`, the LC retention time was 0.862 min.
Regarding `CCC(=O)NCC(=O)O`, the LC retention time was 1.7 min.
`O=C(O)C1(O)CC(O)C(O)C(O)C1` (stereo not drawn): the LC retention time was 0.867 min.
As for `O=c1[nH]cnc2nc[nH]c12`, the LC retention time was 1.38 min.
As for `O=C(O)c1ccccc1C(=O)O`, the LC retention time is 3.32 min.
Consider `CC(=O)Oc1cc(C)c(OC(C)=O)c2ccccc12`, for which the LC retention time was 5.35 min.
Consider `O=C(O)CCCCCCCCC(=O)O`, for which the LC retention time was 4.96 min.
Consider `Nc1cccc(C(=O)O)c1O`, for which the LC retention time is 1.54 min.
For `CCC1C(=O)OCC1Cc1cncn1C` (stereo not drawn), the LC retention time was 2.04 min.
On to `OC(CCN1CCCCC1)(c1ccccc1)C1CCCCC1` (stereo not drawn), for which the LC retention time was 4.77 min.
`O=S(=O)(O)c1ccc(O)cc1`: the LC retention time was 1.02 min.
Regarding `CN1C2CCC1CC(OC(=O)C(CO)c1ccccc1)C2` (stereo not drawn), the LC retention time is 3.22 min.
Take `O=C(O)CCCC(O)C(=O)O` (stereo not drawn): the LC retention time was 1.89 min.
The value for `CCCCCCCCCC(=O)OC(CC(=O)[O-])C[N+](C)(C)C` (stereo not drawn) was 5.25 min.
With `O=P(O)(O)OCC1OC(O)C(O)C1O` (stereo not drawn), the LC retention time was 0.778 min.
Take `O=C(O)CCCCC(=O)O`: the LC retention time is 2.83 min.
